The values below come from US20210137945A1, “METHOD FOR TREATING A CANCER ASSOCIATED WITH THE ACTIVATION OF GALECTIN-1” (TRINEO BIOTECHNOLOGY CO. LTD, priority 2019, published 2021).

Structures are written as SMILES.

Holding throughout (type): cell-based
One assay relates to myeloma ARH-77 cells. Put plainly: MTT assay of myeloma ARH-77 cells treated with chemotherapeutic drugs alone or combined. The conditions noted are these: for IC50: ARH-77 cells, chemotherapeutic agent alone (control). The protocol:
(§1) Ovarian cancer cell ES-2 and myeloma cell line ARH-77 were used in the present disclosure. Cells was cultured and maintained in Dulbecco's modified Eagle media (DMEM) supplemented with 10% fetal bovine serum (FBS), 100 IU/ml penicillin, […] streptomycin, 2 mM glutamine, non-essential amino acids and sodium pyruvate in 5% CO2 at 37° C. Cells were grown and maintained in Petri dishes (each was 10 cm in diameter) until they reached 80% confluence, and then were subject to cell passages. Briefly, cells were first washed with phosphate buffer solution (PBS, 3 ml) once, then treated with 0.05% Trypsin/0.025% EDTA solution (1 mL) for 5 min so that the attached cells become suspended. The suspended cells were harvested and 2 mL fresh culture media were added therein to neutralize any remaining activity of trypsin. Cell density was adjusted by adding appropriate amounts of culture medium to the cell suspension, which was then used to seed the culture plates. The plates were then returned to the incubator, and cultured in accordance with the steps described above.
Cells were seeded in 96-well plates with a density of 3,000 cells/well and cultured in accordance with the procedures described above. On the day when cell activity analysis was to be conducted, cells were first treated with various concentrations of the triterpenoids of the present disclosure, imatinib or gefitinib for at least 48 hrs, before subjecting them to MTT assay.
50 μL of the MTT stock solution (5 mg MTT dissolved in 1 ml of sterile PBS) was added to each well, and 50 μL of the MTT stock solution was added to 500 μL of medium alone and used as a negative control. Each sample was incubated at 37° C. for 4 hours. Aliquots (450 μl) from each sample were taken to a new well of 48-well culture plate, adding […], DMSO, mixing thoroughly using the pipette and reacted at 37° C. for 20 min and absorbance was measured at 570 nm.
Results are summarized in Tables 1 to 3, and FIGS. 3 and 4.
If no significance existed between the expected and observed values, the effect is termed“additivity (p>0.05)”. […] The expected value was determined by multiplying the survival rate of each drug in specific dose. The obtained value and value of each survival rate were measured by MMT assay (FIG. 3 and FIG. 4).

The test system of a further assay is galectin-1. Put plainly: Western blot analysis of galectin-1 expression in ES-2 cells. Conditions: western blot (FIG. 2). The protocol: Samples were respectively subjected to SDS-PAGE, transferred to PVDF membranes. These blots were blocked with 5% nonfat milk powder in TBS-0.1% Tween-20 for 30 minutes, followed by incubation with primary antibodies at 4° C. overnight and then horseradish peroxidase-conjugated secondary antibodies (Amersham Biosciences, Piscataway). Imaging of bands was performed using Pierce ECL Western Blotting Substrate (Thermo Fisher Scientific) and ImageQuant LAS-4000 (GE Healthcare).
In this example, the effects of TN-GL-01 composition on the expression of galectin-1 in ERK (extracellular-signal-regulated kinase) pathway was investigated via western blot analysis. […] Thus, it was concluded that the present TN-GL-01 composition exerted its function through suppression of galectin-1.
Background: Immunoblotting shows a protein as a band on a membrane.

Assay [1] concerns ovarian cancer cells (i.e., ES-2 cells). As to the kind of experiment: MTT assay of cell activity, ES-2 cells. Conditions: treated at least 48 hrs. The protocol: as §1, with “The suspended cells were harvested and 2 mL fresh culture media were added therein to neutralize any remaining activity of trypsin. Cell density was adjusted by adding appropriate amounts of culture medium to the cell suspension, which was then used to seed the culture plates. The plates were then returned to the incubator, and cultured in accordance with the steps described above.” left out
50 μL of the MTT stock solution (5 mg MTT dissolved in 1 ml of sterile PBS) was added to each well, and 50 μL of the MTT stock solution was added to 500 μL of medium alone and used as a negative control. […] Aliquots (450 μl) from each sample were taken to a new well of 48-well culture plate, adding […], DMSO, mixing thoroughly using the pipette and reacted at 37° C. for 20 min and absorbance was measured at 570 nm.
The effects of the TN-GL-01 composition of example 1.1 on ovarian cancer cells (i.e., ES-2 cells) were evaluated by MTT assay in accordance with procedures described in the “Material and Methods” section.
Background: Tetrazolium assays rely on reduction of a dye to a coloured formazan, in cell work by metabolically active cells.

Consider `N.N.[Cl][Pt][Cl]` [Cisplatin, cisplatin], for which the “Cell survival rate of the single drug” value in the assay with myeloma ARH-77 cells (ARH-77, Table 2, Cisplatin 3 μM alone) is listed as 0.65; in the assay with myeloma ARH-77 cells (ARH-77, Table 3, Cisplatin 3 μM alone), 0.69.

On to `COc1cccc2c1C(=O)c1c(O)c3c(c(O)c1C2=O)C[C@@](O)(C(=O)CO)C[C@@H]3O[C@H]1C[C@H](N)[C@H](O)[C@H](C)O1` [Doxorubicin, doxorubicin], for which the “Cell survival rate of the single drug” value in the assay on myeloma ARH-77 cells (ARH-77, Table 2, Doxorubicin 100 nM alone) was determined as 0.58; in the assay on myeloma ARH-77 cells (ARH-77, Table 3, Doxorubicin 250 nM alone), 0.66; with myeloma ARH-77 cells (ARH-77, Table 3, Doxorubicin 500 nM alone), 0.66. For the same molecule, in the assay with myeloma ARH-77 cells (Homo sapiens), the half-inhibitory concentration (IC50) came to 0.099 µM.

For `COc1cc([C@@H]2c3cc4c(cc3[C@@H](O[C@@H]3O[C@@H]5CO[C@@H](C)O[C@H]5[C@H](O)[C@H]3O)[C@H]3COC(=O)[C@H]23)OCO4)cc(OC)c1O` [Etoposide, etoposide], the half-maximal inhibitory concentration (IC50) with myeloma ARH-77 cells is 0.415 µM.

As for `C/C(=C/CC[C@@H](C)[C@H]1CC[C@@]2(C)C3=CC[C@H]4C(C)(C)C(=O)CC[C@]4(C)C3=CC[C@]12C)C(=O)O` [GAS, ganoderic acid S], the “expression of galectin-1” value with galectin-1 is given as “effective in suppressing the expression of galectin-1”. For the same molecule, in assay [1], the “50% inhibition of ES-2 cells (IC50)” value was found to be 58.3 µg/mL.

`CC(=O)O[C@@H](C/C=C(\C)C(=O)O)[C@@H](C)[C@H]1C[C@H](OC(C)=O)[C@@]2(C)C3=CC[C@H]4C(C)(C)[C@H](OC(C)=O)CC[C@]4(C)C3=CC[C@]12C` [GAT, ganoderic acid T]: the “expression of galectin-1” value in the assay on galectin-1 is recorded as “effective in suppressing the expression of galectin-1”. Also, the “50% inhibition of ES-2 cells (IC50)” value in assay [1] amounted to 24.5 µg/mL.

Take `CC(=O)O[C@H]1C(=O)[C@@]2(C)[C@H]([C@H](OC(=O)c3ccccc3)[C@]3(O)C[C@H](OC(=O)[C@H](O)[C@@H](NC(=O)c4ccccc4)c4ccccc4)C(C)=C1C3(C)C)[C@]1(OC(C)=O)CO[C@@H]1C[C@@H]2O` [Paclitaxel, paclitaxel]: the “Cell survival rate of the single drug” value in the assay with myeloma ARH-77 cells (ARH-77, Table 2, Paclitaxel 62.5 nM alone) stood at 0.68; in the assay with myeloma ARH-77 cells (ARH-77, Table 2, Paclitaxel 125 nM alone), 0.50; in the assay on myeloma ARH-77 cells (ARH-77, Table 3, Paclitaxel 40 μM alone) it was 0.65.

Usually IC50 stands for the concentration that gives 50% inhibition.
